From patent US10765114B2, “4-amino-6-(pyridyl and 2-substitutedphenyl)-picolinates and 6-amino-2-(pyridyl and 2-substitutedphenyl)-pyrimidine-4-carboxylates and their use as herbicides” (Dow AgroSciences LLC, priority 2013, dated 2020)
Read-outs that look alike come from different tables or passages of the source.

How the values were obtained:
[1] = test system: Key Broadleaf Weed and Crop Species; assay: Post-Emergent Test II (Table 5); format: in vivo; settings: post-emergence, 336 h; for pest or weed control at 70 g/ha: application rate 70 (kg ai/ha; footnote: g ai/ha); for pest or weed control at 140 g/ha: application rate 140 (kg ai/ha; footnote: g ai/ha)
Method in brief: (§1)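 Visual injury ratings (0 = no injury, 100 = complete kill) taken 14 days after treatment, relative to untreated controls. Compounds, in an acetone/DMSO aqueous carrier with crop oil and surfactant, were applied by track sprayer at 187 L/ha, in a twofold dilution series from the top rate, to plants at the first to second true-leaf stage.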

[2] = test system: Key Grass and Sedge Weeds as well as Grass Crops; assay: Post-Emergent Test II (Table 6); format: in vivo; settings: post-emergence, 336 h, 14 days after application; for pest or weed control at 70 g/ha: 70 g ai/ha; for pest or weed control at 140 g/ha: 140 g ai/ha
Method in brief: as §1

[3] = Abutilon theophrasti, ABUTH: velvetleaf (Abutilon theophrasti), read-out: Visual Growth Reduction (%) 14 Days After Application ABUTH
[4] = Amaranthus retroflexus, AMARE: redroot pigweed (Amaranthus retroflexus), read-out: Visual Growth Reduction (%) 14 Days After Application AMARE
[5] = Brassica napus, BRSSS: oilseed rape, canola (Brassica napus), read-out: Visual Growth Reduction (%) 14 Days After Application BRSSS
[6] = Chenopodium album, CHEAL: lambsquarters (Chenopodium album), read-out: Visual Growth Reduction (%) 14 Days After Application CHEAL
[7] = Euphorbia heterophylla, EPHHL: wild poinsettia (Euphorbia heterophylla), read-out: Visual Growth Reduction (%) 14 Days After Application EPHHL
[8] = Helianthus annuus, HELAN: sunflower (Helianthus annuus), read-out: Visual Growth Reduction (%) 14 Days After Application HELAN
[9] = Viola tricolor, VIOTR: wild pansy (Viola tricolor), read-out: Visual Growth Reduction (%) 14 Days After Application VIOTR
[10] = CYPSS, read-out: Visual Growth Reduction (%) 14 Days After Application CYPSS
[11] = DIGSA: crabgrass (Digitaria sanguinalis), read-out: Visual Growth Reduction (%) 14 Days After Application DIGSA
[12] = ECHSS, read-out: Visual Growth Reduction (%) 14 Days After Application ECHSS
[13] = ORYSS (crop), read-out: Visual Growth Reduction (%) 14 Days After Application ORYSS
[14] = SETFA: giant foxtail (Setaria faberi), read-out: Visual Growth Reduction (%) 14 Days After Application SETFA
[15] = SORVU: grain sorghum (Sorghum vulgare), read-out: Visual Growth Reduction (%) 14 Days After Application SORVU
[16] = TRZSS (crop), read-out: Visual Growth Reduction (%) 14 Days After Application TRZSS
[17] = ZEAMX: maize, corn (Zea mays), read-out: Visual Growth Reduction (%) 14 Days After Application ZEAMX

| SMILES | pest or weed control at 70 g/ha [1, 3] | pest or weed control at 140 g/ha [1, 3] | pest or weed control at 70 g/ha [1, 4] | pest or weed control at 140 g/ha [1, 4] | pest or weed control at 70 g/ha [1, 5] | pest or weed control at 140 g/ha [1, 5] | pest or weed control at 70 g/ha [1, 6] | pest or weed control at 140 g/ha [1, 6] | pest or weed control at 70 g/ha [1, 7] | pest or weed control at 140 g/ha [1, 7] | pest or weed control at 70 g/ha [1, 8] | pest or weed control at 140 g/ha [1, 8] | pest or weed control at 70 g/ha [1, 9] | pest or weed control at 140 g/ha [1, 9] | pest or weed control at 70 g/ha [2, 10] | pest or weed control at 140 g/ha [2, 10] | pest or weed control at 70 g/ha [2, 11] | pest or weed control at 140 g/ha [2, 11] | pest or weed control at 70 g/ha [2, 12] | pest or weed control at 140 g/ha [2, 12] | further results |
| --- | --- | --- | --- | --- | --- | --- | --- | --- | --- | --- | --- | --- | --- | --- | --- | --- | --- | --- | --- | --- | --- |
| Nc1c(F)c(-c2ccc(Cl)c(Cl)c2Cl)nc(C(=O)O)c1Cl [Compound 10] | 0 to 29% | 0 to 29% | 95 to 100% | 95 to 100% | 95 to 100% | 95 to 100% | 75 to 84% | 75 to 84% | 60 to 74% | 75 to 84% | 0 to 29% | 0 to 29% | 0 to 29% | 0 to 29% | 0 to 29% | 0 to 29% | 0 to 29% | 45 to 59% | 0 to 29% | 0 to 29% | pest or weed control at 70 g/ha [2, 13]: 0 to 29%; pest or weed control at 140 g/ha [2, 13]: 0 to 29%; pest or weed control at 70 g/ha [2, 14]: 0 to 29%; pest or weed control at 140 g/ha [2, 14]: 0 to 29%; pest or weed control at 70 g/ha [2, 15]: 0 to 29%; pest or weed control at 140 g/ha [2, 15]: 0 to 29%; pest or weed control at 70 g/ha [2, 16]: 75 to 84%; pest or weed control at 140 g/ha [2, 16]: 85 to 94%; pest or weed control at 70 g/ha [2, 17]: 60 to 74%; pest or weed control at 140 g/ha [2, 17]: 60 to 74% |
| COC(=O)c1nc(-c2ccc(C(F)(F)F)c(F)c2C)c(F)c(N)c1Cl [Compound 41] | 75 to 84% | 60 to 74% | 0 to 29% | 0 to 29% | 0 to 29% | 0 to 29% | 45 to 59% | 85 to 94% | 0 to 29% | 45 to 59% | 95 to 100% | 95 to 100% | 0 to 29% | 0 to 29% | 0 to 29% | 95 to 100% | 0 to 29% | 0 to 29% | 0 to 29% | 0 to 29% | pest or weed control at 70 g/ha [2, 13]: 0 to 29%; pest or weed control at 140 g/ha [2, 13]: 0 to 29%; pest or weed control at 70 g/ha [2, 15]: 0 to 29%; pest or weed control at 140 g/ha [2, 15]: 0 to 29%; pest or weed control at 70 g/ha [2, 16]: 0 to 29%; pest or weed control at 140 g/ha [2, 16]: 0 to 29%; pest or weed control at 70 g/ha [2, 17]: 0 to 29%; pest or weed control at 140 g/ha [2, 17]: 45 to 59% |
| COC(=O)c1nc(-c2ccc(Cl)nc2F)cc(N)c1Cl [Compound 17, methyl 4-amino-5,6′-dichloro-2′-fluoro-[2,3′-bipyridine]-6-carboxylate] | 95 to 100% | 95 to 100% | 95 to 100% | 95 to 100% | 0 to 29% | 30 to 44% | 95 to 100% | 95 to 100% | 0 to 29% | 45 to 59% | 60 to 74% | 75 to 84% | 60 to 74% | 60 to 74% | 60 to 74% | 75 to 84% | 0 to 29% | 0 to 29% | 60 to 74% | 85 to 94% | pest or weed control at 70 g/ha [2, 13]: 0 to 29%; pest or weed control at 140 g/ha [2, 13]: 0 to 29%; pest or weed control at 70 g/ha [2, 14]: 0 to 29%; pest or weed control at 140 g/ha [2, 14]: 0 to 29%; pest or weed control at 70 g/ha [2, 15]: 0 to 29%; pest or weed control at 140 g/ha [2, 15]: 30 to 44%; pest or weed control at 70 g/ha [2, 16]: 0 to 29%; pest or weed control at 140 g/ha [2, 16]: 0 to 29%; pest or weed control at 70 g/ha [2, 17]: 0 to 29%; pest or weed control at 140 g/ha [2, 17]: 30 to 44% |
